Laboratory results taken from paper PMC3447774, “Genes Encoding Cher-TPR Fusion Proteins Are Predominantly Found in Gene Clusters Encoding Chemosensory Pathways with Alternative Cellular Functions” (PLoS ONE, 2012).

Legend:
Test in all cases: isothermal titration calorimetry
Type in all cases: binding
[1] = target: T1, WspC-Pp (Pseudomonas putida, UniProt Q88MS8)
T1 construct: full-length CheR-linker-TPR protein; monomer
Source text: isothermal titration calorimetry on WspC-Pp

[2] = target: T2, WspC-Ppshort (Pseudomonas putida, UniProt Q88MS8)
T2 construct: amino acids 1-240, CheR domain only, lacks linker and TPR domain
T2 sequence (Q88MS8 1-283): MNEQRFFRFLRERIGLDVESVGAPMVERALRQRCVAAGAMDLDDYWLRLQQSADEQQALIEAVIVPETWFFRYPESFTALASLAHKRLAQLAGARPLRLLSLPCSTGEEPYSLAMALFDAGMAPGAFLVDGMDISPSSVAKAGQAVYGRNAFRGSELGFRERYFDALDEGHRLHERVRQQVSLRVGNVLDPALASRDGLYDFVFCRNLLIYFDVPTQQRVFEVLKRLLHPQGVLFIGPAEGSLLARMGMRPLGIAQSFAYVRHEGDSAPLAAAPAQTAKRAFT
Source text: isothermal titration calorimetry on WspC-Ppshort

[3] = target: T3, WspC-Ppmiddle (Pseudomonas putida, UniProt Q88MS8)
T3 construct: amino acids 1-355, CheR domain plus linker, lacks TPR domain
T3 sequence (Q88MS8 1-355): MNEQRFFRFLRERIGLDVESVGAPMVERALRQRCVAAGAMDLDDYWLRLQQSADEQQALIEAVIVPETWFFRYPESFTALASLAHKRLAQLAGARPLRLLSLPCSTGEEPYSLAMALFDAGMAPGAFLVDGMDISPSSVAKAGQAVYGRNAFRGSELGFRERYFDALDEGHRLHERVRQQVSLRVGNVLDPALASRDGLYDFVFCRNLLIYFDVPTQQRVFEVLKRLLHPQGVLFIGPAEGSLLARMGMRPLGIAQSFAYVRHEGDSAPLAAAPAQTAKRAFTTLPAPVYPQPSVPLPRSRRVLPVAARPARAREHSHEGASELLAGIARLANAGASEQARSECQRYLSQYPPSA
Source text: isothermal titration calorimetry on WspC-Ppmiddle

T1 sequence (Q88MS8 whole entry): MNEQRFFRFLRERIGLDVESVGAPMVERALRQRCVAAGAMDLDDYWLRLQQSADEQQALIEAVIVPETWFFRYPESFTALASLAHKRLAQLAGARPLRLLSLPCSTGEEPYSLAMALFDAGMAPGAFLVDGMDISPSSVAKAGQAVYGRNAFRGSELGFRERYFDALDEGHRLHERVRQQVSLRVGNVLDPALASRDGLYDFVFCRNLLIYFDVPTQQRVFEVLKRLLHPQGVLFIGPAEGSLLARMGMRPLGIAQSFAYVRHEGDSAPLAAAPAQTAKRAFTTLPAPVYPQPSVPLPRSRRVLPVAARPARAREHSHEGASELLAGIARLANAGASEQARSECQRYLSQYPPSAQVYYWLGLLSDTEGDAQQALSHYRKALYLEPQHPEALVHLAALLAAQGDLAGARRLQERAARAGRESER

Kd [1] [µM] | Kd [2] [µM] | Kd [3] [µM] | Compound
43 ± 2 | 41 ± 4 | 35 ± 2 | C[S+](CC[C@H](N)C(=O)O)C[C@H]1O[C@@H](n2cnc3c(N)ncnc32)[C@H](O)[C@@H]1O (stereo partly drawn) [S-adenosylmethionine]
1.7 ± 0.1 | 2 ± 0.1 | 1.6 ± 0.1 | Nc1ncnc2c1ncn2[C@@H]1O[C@H](CSCC[C@H](N)C(=O)O)[C@@H](O)[C@H]1O [S-adenosylhomocysteine]
